From patent publication US20050256161A1, “Melanin concentrating hormone receptor antagonists” (priority 2003, published 2005) come the findings set out here.

Molecules are shown by their SMILES. A value given as a limit tells only on which side of the number the result lay.

The target in one test is T1, human MCH receptor (Homo sapiens, UniProt Q99705).
T1 construct: expressed in transfected cells
Nature of the test: hMCH FLIPR calcium mobilization functional assay. The test is classed as cell-based.

The target in test [1] is T2, rat MCH 1 receptor (rMCH1R) (Rattus norvegicus, UniProt P97639).
T2 construct: expressed in transfected cells; host or cells: HEK 293 (membrane preparation)
T2 sequence (P97639 whole entry): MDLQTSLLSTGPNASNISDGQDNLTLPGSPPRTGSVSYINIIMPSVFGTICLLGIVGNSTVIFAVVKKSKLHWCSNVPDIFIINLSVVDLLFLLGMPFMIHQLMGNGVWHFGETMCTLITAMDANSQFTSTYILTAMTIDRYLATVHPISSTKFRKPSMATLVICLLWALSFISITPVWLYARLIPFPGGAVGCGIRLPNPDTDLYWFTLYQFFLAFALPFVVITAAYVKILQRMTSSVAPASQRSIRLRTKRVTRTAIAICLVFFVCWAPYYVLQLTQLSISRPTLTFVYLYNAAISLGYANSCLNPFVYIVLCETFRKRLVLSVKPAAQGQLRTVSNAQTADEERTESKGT
Kind of test: Ligand binding assay (125I native-MCH), rMCH. As to conditions: rMCH1R expressed in HEK 293, membranes, 0.2 nM 125I native-MCH. The protocol:
(§1) Human embryonic kidney cells (293 total) expressing either human, rat, or mouse MCH receptor were harvested from 150 mm culture dishes using PBS. Spinning at 1500 rpm for 2 minutes initially pelleted cells. The resulting pellet was then homogenized in 15 mL ice cold sucrose buffer (25 mM HEPES, 0.3 M sucrose, pH 7.4) with a motorized, glass fitted, Teflon® homogenizer. The homogenate was centrifuged at 48,000×g at 4° C. for 10 minutes, resuspended in 15 mL assay buffer (25 mM HEPES, 10 mM MgCl2, 0.2% BSA, 0.1 mg/mL STI, 0.1 mg/mL Pefabloc®, 1 μM Phosphoramidon, pH 7.4) with a Tissue-Tearor® (Biospec Products) and centrifuged again at 48,000×g for 10 minutes. The pellet was homogenized for a third time in 15 mL assay buffer using the Tissue-Tearor® and again centrifuged at 48,000×g for 10 minutes. The resulting pellet was resuspended in assay buffer at a wet weight concentration of 10-20 mg/mL.
(§2) Binding assays were determined as described below using mouse, rat or human MCH 1 receptors (mMCH1R, rMCH1R, and hMCH1R, respectively) expressed in HEK 293; IC50 values were calculated.
(§3) Binding assays were performed in 96-well U-bottom plates. Membranes (100 μg tissue) were incubated at 30° C. for 90 minutes in assay buffer with various peptides in the presence of 0.2 nM 125I native-MCH (Perkin-Elmer Life Sciences, Boston, Mass.) in 100 μL total volume. Non-specific binding was assessed in the presence of 1 μM cold native-MCH. The reaction was terminated by rapid filtration through Unfilter-96 GF/C glass fiber filter plates (FilterMate® 196 Harvester, Packard Instrument Co., Meriden, Conn.) pre-soaked in PBS/0.5% BSA, followed by three washes with 300 μL ice-cold water. Bound radioactivity was determined using a TopCount® microplate scintillation and luminescence counter (Packard Instrument Co., Meriden, Conn.). Nonlinear regression analyses of drug concentration curves were performed using GraphPad Prism® (GraphPad Software, Inc., San Diego, Calif.).

The target in test [2] is T3, human MCH 1 receptor (hMCH1R) (Homo sapiens, UniProt Q99705).
T3 construct: expressed in transfected cells; host or cells: HEK 293 (membrane preparation)
T3 sequence (Q99705 whole entry): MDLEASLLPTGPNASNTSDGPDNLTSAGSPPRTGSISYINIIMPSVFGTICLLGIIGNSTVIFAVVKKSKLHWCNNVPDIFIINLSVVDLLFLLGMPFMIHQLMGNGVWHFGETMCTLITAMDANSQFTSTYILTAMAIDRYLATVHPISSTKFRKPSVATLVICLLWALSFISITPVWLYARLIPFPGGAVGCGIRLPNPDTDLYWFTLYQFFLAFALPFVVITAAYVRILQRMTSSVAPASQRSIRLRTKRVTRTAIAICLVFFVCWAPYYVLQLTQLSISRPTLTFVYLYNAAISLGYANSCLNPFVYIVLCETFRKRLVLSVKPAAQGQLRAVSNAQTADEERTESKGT
Kind of test: Ligand binding assay (125I native-MCH), hMCH. As to conditions: hMCH1R expressed in HEK 293, membranes, 0.2 nM 125I native-MCH. The protocol: as §1, §2, §3

The target in another test is T4, rat MCH1 receptor (Rattus norvegicus, UniProt P97639).
T4 construct: expressed in transfected cells
T4 sequence (P97639 whole entry): as the sequence (P97639 whole entry) above
Kind of test: rMCH FLIPR calcium mobilization functional assay. The test is classed as cell-based. The settings on record: CHOK1-Gqi cells. On the procedure: Pharmacological analyses were conducted using either a HT-PS100 device (Axiom Biotechnologies, San Diego, Calif.), which provides high-resolution dose-response fluorometric measurements of [Ca^++]i mobilization, or using a FLIPR® device (Molecular Devices, Sunnyvale, Calif.).
Materials: Pharmacological analysis was conducted using a FLIPR® device (Molecular Devices, Sunnyvale, Calif.). CHOK1-Gqi cells were stably transfected with the rat MCH1 receptor and maintained under G418 antibiotic pressure. FLIPR® assay buffer consisted of phenol red-free DMEM+2.5 mM probenecid. MCH peptide (Amgen, Inc.) was reconstituted in assay buffer and served as the positive agonist control for all experiments. Test compounds were prepared as 10 mM stocks in 100% DMSO and diluted to a top end working concentration of 10 μM in 96 well black, flat bottom, collagen-I coated plates (Becton Dickinson, Bedford, Mass.).
Methods: CHOK1-Gqi cells stably expressing MCH1R were maintained in Dulbeco's modified Eagle's medium (GIBCO/Life Technologies, Rockville, Md.) supplemented with 2 mM glutamine and 10% dialyzed fetal bovine serum (HyClone, Logan, Utah) at 37° C., 5% CO2. Cells were harvested by 10′ treatment with Versene (GIBCO/Life Technologies) followed by trituration, washing twice with cold (4° C.) hybridoma medium (Serum/Protein free, with L-glutamine, sodium bicarbonate, MOPS buffer) (Sigma-Aldrich Corp, St. Louis, Mo.) and replated onto 96 well black, flat bottom, collagen-I coated plates to a density of 10,000 cells/well. The cells were then loaded with the fluorescent calcium indicator Fura-2 (Molecular Probes, Eugene, Oreg.) at 1.6 μM for 60′ at room temperature. The loaded cells were then washed twice with 90 μl/well of wash buffer (1×HBSS, 20 mM HEPES, 2.5 mM probenecid).
Receptor-stimulated intracellular calcium responses were detected using FLIPR® by monitoring increases in the Fura-2 fluorescence response.
Test compounds were screened for MCH1R activity in the FLIPR® for both agonist and antagonist action. Agonist mode challenges were conducted at a maximum gradient concentration of 1 μM. Antagonist activity was tested by 10 min pre-incubation of cells at a compound concentration of defined to be 300× the EC50 of MCH (typically 1 μM), with subsequent introduction of MCH at a concentration 5-fold of EC50 as determined in preliminary experiments.
Schild experiments were conducted on the FLIPR® for selected compounds by co-administering antagonist compounds together with MCH peptide. Several fixed concentrations of antagonist compounds were prepared in 10-fold increments, and presented to the cells in a gradient of increasing MCH concentration. Values for compound pA2 were calculated by linear regression of MCH EC50s as a function of antagonist concentration.

T1 sequence (Q99705 whole entry): as the sequence (Q99705 whole entry) above

Turning to `Cc1ccc(Oc2ccc(C(=O)NCCN3CCCC3)cc2NC(=O)Nc2cc(Cl)cc(Cl)c2)cc1C` [Compound 59, 3-[3-(3,5-dichlorophenyl)ureido]-4-(3,4-dimethylphenoxy)-N-(2-pyrrolidin-1-yl-ethyl)benzamide], the Ki on human MCH receptor (threshold 100 μM or less) and on rat MCH1 receptor (threshold 100 μM or less) was not above 100 µM throughout. Also, the 50% inhibitory concentration (IC50) is not above 0.1 µM in test [1] (threshold 100 nM or less), not above 100 µM in test [1] (threshold 100 μM or less), not above 0.1 µM in test [2] (threshold 100 nM or less) and not above 100 µM in test [2] (threshold 100 μM or less).
In the case of `COc1cccc(NC(=O)Nc2cc(C(=O)NCCN3CCCC3)ccc2Oc2ccc(C)c(C)c2)c1` [Compound 40, 4-(3,4-dimethylphenoxy)-3-[3-(3-methoxyphenyl)ureido]-N-(2-pyrrolidin-1-yl-ethyl)benzamide], the Ki at human MCH receptor (threshold 100 nM or less) was not above 0.1 µM; at human MCH receptor (threshold 100 μM or less), not above 100 µM; at rat MCH1 receptor (threshold 100 nM or less) it was not above 0.1 µM; at rat MCH1 receptor (threshold 100 μM or less), not above 100 µM. The IC50 in test [1] (threshold 100 nM or less) is not above 0.1 µM; in test [1] (threshold 100 μM or less), not above 100 µM; in test [2] (threshold 100 nM or less), not above 0.1 µM; in test [2] (threshold 100 μM or less), not above 100 µM.
As to `Cc1ccc(Oc2ccc(C(=O)NCCN3CCCC3)cc2NC(=O)Nc2cccc3ccccc23)cc1C` [Compound 36, 4-(3,4-dimethylphenoxy)-3-(3-naphthalen-1-yl-ureido)-N-(2-pyrrolidin-1-yl-ethyl)benzamide], the inhibition constant Ki on human MCH receptor (threshold 100 μM or less) and on rat MCH1 receptor (threshold 100 μM or less) was not above 100 µM each time. The 50% inhibitory concentration (IC50) in test [1] (threshold 100 μM or less) was not above 100 µM; in test [2] (threshold 100 nM or less) it was not above 0.1 µM; in test [2] (threshold 100 μM or less) it was not above 100 µM.
Regarding `Cc1ccc(Oc2ccc(C(=O)NCCN3CCCC3)cc2NC(=O)Nc2ccc(Br)cc2)cc1C` [Compound 38, 3-[3-(4-bromophenyl)ureido]-4-(3,4-dimethylpherioxy)-N-(2-pyrrolidin-1-yl-ethyl)benzamide], the Ki was not above 0.1 µM at human MCH receptor (threshold 100 nM or less), not above 100 µM at human MCH receptor (threshold 100 μM or less), not above 0.1 µM at rat MCH1 receptor (threshold 100 nM or less) and not above 100 µM on rat MCH1 receptor (threshold 100 μM or less). Further, the half-maximal inhibitory concentration (IC50) in test [1] (threshold 100 nM or less) was not above 0.1 µM; in test [1] (threshold 100 μM or less) it was not above 100 µM; in test [2] (threshold 100 nM or less) it was not above 0.1 µM; in test [2] (threshold 100 μM or less) it was not above 100 µM.
With `Cc1ccc(Oc2ccc(C(=O)NCCN3CCCC3)cc2NC(=O)Nc2ccccc2Cl)cc1C` [Compound 41, 3-[3-(2-chlorophenyl)ureido]-4-(3,4-dimethylphenoxy)-N-(2-pyrrolidin-1-yl-ethyl)benzamide], the inhibition constant Ki was not above 0.1 µM at human MCH receptor (threshold 100 nM or less), not above 100 µM at human MCH receptor (threshold 100 μM or less), not above 0.1 µM at rat MCH1 receptor (threshold 100 nM or less) and not above 100 µM at rat MCH1 receptor (threshold 100 μM or less). For the same compound, the concentration for half-maximal inhibition (IC50) in test [1] (threshold 100 nM or less) was not above 0.1 µM; in test [1] (threshold 100 μM or less), not above 100 µM; in test [2] (threshold 100 nM or less), not above 0.1 µM; in test [2] (threshold 100 μM or less), not above 100 µM.
With `Cc1ccc(Oc2ccc(C(=O)NCCN3CCCC3)cc2NC(=O)Nc2cc(F)cc(F)c2)cc1C` [Compound 58, 3-[3-(3,5-difluorophenyl)ureido]-4-(3,4-dimethylphenoxy)-N-(2-pyrrolidin-1-yl-ethyl)benzamide], the inhibitory constant (Ki) on human MCH receptor (threshold 100 μM or less) and at rat MCH1 receptor (threshold 100 μM or less) was not above 100 µM each time. Besides, the IC50 in test [1] (threshold 100 nM or less) was not above 0.1 µM; in test [1] (threshold 100 μM or less), not above 100 µM; in test [2] (threshold 100 nM or less), not above 0.1 µM; in test [2] (threshold 100 μM or less), not above 100 µM.
